ChEMBL document CHEMBL1132745, “Diphenylsulfone muscarinic antagonists: piperidine derivatives with high M2 selectivity and improved potency” (Bioorg Med Chem Lett, 2000)

Columns and labels:
[1] = biological target: Muscarinic acetylcholine receptor M3 (Homo sapiens, UniProt P20309); assay: Binding affinity against Muscarinic acetylcholine receptor M3
[2] = biological target: T1, Muscarinic acetylcholine receptor M1 (Homo sapiens, UniProt P11229); assay: Binding affinity against Muscarinic acetylcholine receptor M1
T1 sequence (P11229 whole entry): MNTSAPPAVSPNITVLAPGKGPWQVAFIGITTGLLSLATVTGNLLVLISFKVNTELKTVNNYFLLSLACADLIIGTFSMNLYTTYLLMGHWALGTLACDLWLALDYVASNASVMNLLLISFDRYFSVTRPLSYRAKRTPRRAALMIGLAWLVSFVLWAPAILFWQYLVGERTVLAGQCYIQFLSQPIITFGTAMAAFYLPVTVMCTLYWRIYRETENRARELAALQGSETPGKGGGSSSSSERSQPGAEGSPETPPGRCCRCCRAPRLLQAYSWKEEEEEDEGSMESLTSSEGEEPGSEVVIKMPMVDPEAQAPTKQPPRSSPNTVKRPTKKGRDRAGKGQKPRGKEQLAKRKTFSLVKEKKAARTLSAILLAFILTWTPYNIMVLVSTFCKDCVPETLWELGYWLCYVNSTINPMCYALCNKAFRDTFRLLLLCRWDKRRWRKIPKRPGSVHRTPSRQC

[3] = biological target: T2, Muscarinic acetylcholine receptor M4 (Homo sapiens, UniProt P08173); assay: Binding affinity against Muscarinic acetylcholine receptor M4
T2 sequence (P08173 whole entry): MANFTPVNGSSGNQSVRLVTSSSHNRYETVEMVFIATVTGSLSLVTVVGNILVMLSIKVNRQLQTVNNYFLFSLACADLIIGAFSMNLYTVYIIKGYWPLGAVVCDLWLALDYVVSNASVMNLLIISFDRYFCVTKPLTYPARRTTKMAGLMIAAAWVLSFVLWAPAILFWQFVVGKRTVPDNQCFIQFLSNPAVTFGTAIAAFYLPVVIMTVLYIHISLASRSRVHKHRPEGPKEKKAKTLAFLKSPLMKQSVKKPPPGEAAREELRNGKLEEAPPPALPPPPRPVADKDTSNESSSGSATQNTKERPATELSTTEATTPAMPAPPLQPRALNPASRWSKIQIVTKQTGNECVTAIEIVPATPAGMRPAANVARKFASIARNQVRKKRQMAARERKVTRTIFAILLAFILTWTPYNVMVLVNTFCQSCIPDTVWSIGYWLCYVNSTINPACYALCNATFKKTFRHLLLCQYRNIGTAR

[4] = biological target: T3, Muscarinic acetylcholine receptor M2 (Homo sapiens, UniProt P08172); assay: Binding affinity against Muscarinic acetylcholine receptor M2
T3 sequence (P08172 whole entry): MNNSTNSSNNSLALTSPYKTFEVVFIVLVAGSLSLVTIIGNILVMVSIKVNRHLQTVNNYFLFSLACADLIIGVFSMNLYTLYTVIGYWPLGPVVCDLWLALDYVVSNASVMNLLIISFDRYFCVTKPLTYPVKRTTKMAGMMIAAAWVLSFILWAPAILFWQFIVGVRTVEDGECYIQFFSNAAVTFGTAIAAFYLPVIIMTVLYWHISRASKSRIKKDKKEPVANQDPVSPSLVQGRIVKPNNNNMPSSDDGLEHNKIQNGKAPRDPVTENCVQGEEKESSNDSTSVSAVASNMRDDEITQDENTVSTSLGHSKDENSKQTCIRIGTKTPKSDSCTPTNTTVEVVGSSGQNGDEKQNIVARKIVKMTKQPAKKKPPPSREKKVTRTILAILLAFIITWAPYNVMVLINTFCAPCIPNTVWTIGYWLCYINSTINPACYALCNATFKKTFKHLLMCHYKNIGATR

[5] = biological target: T4, Muscarinic acetylcholine receptor M5 (Homo sapiens, UniProt P08912); assay: The compound was tested for the binding affinity against Muscarinic acetylcholine receptor M5
T4 sequence (P08912 whole entry): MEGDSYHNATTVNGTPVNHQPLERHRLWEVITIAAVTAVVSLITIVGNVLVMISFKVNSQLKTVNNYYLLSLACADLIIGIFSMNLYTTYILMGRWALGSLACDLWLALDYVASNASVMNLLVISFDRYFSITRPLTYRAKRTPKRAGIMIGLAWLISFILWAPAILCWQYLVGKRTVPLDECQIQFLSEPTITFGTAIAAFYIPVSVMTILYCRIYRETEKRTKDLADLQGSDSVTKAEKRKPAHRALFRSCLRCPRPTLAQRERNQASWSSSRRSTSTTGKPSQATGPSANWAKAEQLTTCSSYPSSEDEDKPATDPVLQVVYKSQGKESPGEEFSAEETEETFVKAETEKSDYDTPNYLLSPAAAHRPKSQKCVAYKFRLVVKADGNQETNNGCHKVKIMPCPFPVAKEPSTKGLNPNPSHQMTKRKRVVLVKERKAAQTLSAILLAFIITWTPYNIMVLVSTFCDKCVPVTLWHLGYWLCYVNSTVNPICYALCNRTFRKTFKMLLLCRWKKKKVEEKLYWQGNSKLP

Muscarinic acetylcholine receptor M3, sequence (P20309 whole entry): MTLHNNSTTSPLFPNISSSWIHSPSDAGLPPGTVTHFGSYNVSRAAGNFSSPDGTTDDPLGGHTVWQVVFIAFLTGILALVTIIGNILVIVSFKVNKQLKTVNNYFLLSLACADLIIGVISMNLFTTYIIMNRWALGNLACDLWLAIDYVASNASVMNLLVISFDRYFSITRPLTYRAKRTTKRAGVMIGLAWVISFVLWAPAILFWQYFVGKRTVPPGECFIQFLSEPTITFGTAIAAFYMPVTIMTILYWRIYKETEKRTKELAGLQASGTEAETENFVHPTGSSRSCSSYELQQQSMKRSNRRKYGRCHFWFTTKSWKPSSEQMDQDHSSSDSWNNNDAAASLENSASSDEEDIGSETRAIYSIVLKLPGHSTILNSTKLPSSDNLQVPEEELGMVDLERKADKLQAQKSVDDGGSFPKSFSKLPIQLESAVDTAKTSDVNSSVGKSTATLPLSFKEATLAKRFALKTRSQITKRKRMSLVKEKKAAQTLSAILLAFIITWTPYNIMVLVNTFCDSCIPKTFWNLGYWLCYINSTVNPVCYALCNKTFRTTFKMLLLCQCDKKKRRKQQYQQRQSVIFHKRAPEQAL

## COc1ccc(S(=O)(=O)c2ccc(C(C#N)N3CCN(C4CCCCC4)CC3)cc2)cc1 (configuration not stated)
[1]
  Ki: 6.8 nM
[2]
  Ki: 71.8 nM
[3]
  Ki: 18.6 nM
[4]
  Ki: 7.3 nM

## COc1ccc([S+]([O-])c2ccc(C(C)C3CCN(C4CCCCC4)CC3)cc2)cc1 (configuration not stated)
[5]
  Ki: 1.66 nM
[1]
  Ki: 0.16 nM
[2]
  Ki: 0.53 nM
[3]
  Ki: 0.07 nM
[4]
  Ki: 0.14 nM

## C=C(c1ccc(S(=O)(=O)c2ccc(OC)cc2)cc1)C1CCN(C2CCCCC2)CC1
[1]
  Ki: 0.48 nM
[2]
  Ki: 2.8 nM
[3]
  Ki: 0.33 nM
[4]
  Ki: 0.17 nM

## COc1ccc([S@+]([O-])c2ccc(C(=O)C3CCN(C4CCCCC4)CC3)cc2)cc1
[1]
  Ki: 20.1 nM
[2]
  Ki: 69.5 nM
[3]
  Ki: 15.2 nM
[4]
  Ki: 10.8 nM

## COc1ccc([S@+]([O-])c2ccc(C(C#N)N3CCN(C4CCCCC4)CC3)cc2)cc1 (some centres not stated)
[2]
  Ki: 253 nM
[3]
  Ki: 18.4 nM
[4]
  Ki: 17.3 nM

## COc1ccc(S(=O)(=O)c2ccc(C(C#N)C3CCN(C4CCCCC4)CC3)cc2)cc1 (configuration not stated)
[2]
  Ki: 16.4 nM
[4]
  Ki: 1.3 nM

## COc1ccc([S@+]([O-])c2ccc(C(C#N)C3CCN(C4CCCCC4)CC3)cc2)cc1 (some centres not stated)
[1]
  Ki: 58.8 nM
[2]
  Ki: 136 nM
[3]
  Ki: 45.1 nM
[4]
  Ki: 7.14 nM

## C=C(c1ccc([S@@+]([O-])c2ccc(OC)cc2)cc1)C1CCN(C2CCCCC2)CC1
[1]
  Ki: 0.13 nM
[2]
  Ki: 0.68 nM
[3]
  Ki: 0.09 nM
[4]
  Ki: 0.03 nM

## C=C(c1ccc(Sc2ccc(OC)cc2)cc1)C1CCN(C2CCCCC2)CC1
[2]
  Ki: 4.4 nM
[4]
  Ki: 0.37 nM

## COc1ccc([S@@+]([O-])c2ccc(C(=O)C3CCN(C4CCCCC4)CC3)cc2)cc1
[1]
  Ki: 27.8 nM
[2]
  Ki: 104 nM
[3]
  Ki: 17.9 nM
[4]
  Ki: 3.58 nM

## COc1ccc([S+]([O-])c2ccc(C(C)N3CCN(C4CCCCC4)CC3)cc2)cc1 (configuration not stated)
[1]
  Ki: 0.97 nM
[2]
  Ki: 6 nM
[3]
  Ki: 2.2 nM
[4]
  Ki: 1 nM

## COc1ccc(S(=O)(=O)c2ccc(C(=O)C3CCN(C4CCCCC4)CC3)cc2)cc1
[1]
  Ki: 13.8 nM
[2]
  Ki: 31.1 nM
[3]
  Ki: 9.05 nM
[4]
  Ki: 3.07 nM

## COc1ccc([S@@+]([O-])c2ccc(C(C#N)N3CCN(C4CCCCC4)CC3)cc2)cc1 (some centres not stated)
[5]
  Ki: 309 nM
[1]
  Ki: 29.4 nM
[2]
  Ki: 112 nM
[3]
  Ki: 14.8 nM
[4]
  Ki: 2.78 nM

## COc1ccc([S@@+]([O-])c2ccc(C(C#N)C3CCN(C4CCCCC4)CC3)cc2)cc1 (some centres not stated)
[1]
  Ki: 37 nM
[2]
  Ki: 113 nM
[3]
  Ki: 12.7 nM
[4]
  Ki: 7.67 nM

## C=C(c1ccc([S@+]([O-])c2ccc(OC)cc2)cc1)C1CCN(C2CCCCC2)CC1
[1]
  Ki: 0.38 nM
[2]
  Ki: 2.14 nM
[3]
  Ki: 0.32 nM
[4]
  Ki: 0.057 nM
